Type in all cases: functional
In test [1] the test system is Mycobacterium tuberculosis. The test is described as follows: Antimycobacterial activity against Mycobacterium tuberculosis in presence of ethambutol.
Test [2] deals with Mycobacterium tuberculosis. The test is described as follows: Antimycobacterial activity against Mycobacterium tuberculosis in presence of isoniazid.
In test [3] the test system is Mycolicibacterium smegmatis. Nature of the test: Antimycobacterial activity against Mycobacterium smegmatis in presence of banegasine.
In test [4] the test system is Mycobacterium tuberculosis. Nature of the test: Antimycobacterial activity against Mycobacterium tuberculosis in presence of banegasine.
Test [5] has as its system Mycobacterium avium. Nature of the test: Antimycobacterial activity against Mycobacterium avium in presence of banegasine.
Test [6] deals with Mycolicibacterium smegmatis. The test is described as follows: Antimycobacterial activity against Mycobacterium smegmatis. Conditions: Mycolicibacterium smegmatis.
Test [7] has as its system Mycobacterium tuberculosis. The test is described as follows: Antimycobacterial activity against Mycobacterium tuberculosis. Conditions: Mycobacterium tuberculosis.
The test system of test [8] is Mycobacterium avium. The test is described as follows: Antimycobacterial activity against Mycobacterium avium.
In test [9] the test system is Mycobacterium tuberculosis. The test is described as follows: Antimycobacterial activity against Mycobacterium tuberculosis H37Ra by green fluorescent protein microplate assay.
The subject of test [10] is Mycobacterium tuberculosis. Nature of the test: Antimycobacterial activity against Mycobacterium tuberculosis H37Ra.
For test [11], the system named is Mycobacterium tuberculosis. Nature of the test: Antimycobacterial activity against Mycobacterium tuberculosis Rv3547.
A further test relates to Mycobacterium kansasii. The test is described as follows: Antimycobacterial activity against Mycobacterium kansasii.
Test [12] has as its system Mycobacterium tuberculosis. Nature of the test: Antimycobacterial activity against MDR/XDR Mycobacterium tuberculosis.
The test system of test [13] is Mycobacterium tuberculosis. Nature of the test: Antimycobacterial activity against Mycobacterium tuberculosis rv0678.

For ten compounds, MIC and IC results are on record in ChEMBL document CHEMBL5260811, “Drug development against tuberculosis: Impact of alkaloids” (Eur J Med Chem, 2017).

Converted amounts (≈) assume the structure as drawn.

For the compound `COc1ccc2cc1Oc1ccc(cc1)C[C@H]1c3cc(c(OC)cc3CCN1C)Oc1c(OC)c(OC)cc3c1[C@H](C2)N(C)CC3` [FANCHININ], the minimum inhibitory concentration (MIC) in [1] and in [2] was 0.25 µg/mL each time.

As to `O=[N+]([O-])c1c(Cl)cccc1-c1c[nH]cc1Cl` [PYRROLNITRIN], the IC (in test [3]; in [4]; in the test on Mycobacterium avium [5]) was 0.075 µg/mL each time. Further, the minimum inhibitory concentration (MIC) (in test [6]; in [7]; in the test with Mycobacterium avium [8]) was 4 µg/mL (≈ 15.6 µM) each time.

On to `CC(C)=CCc1c(O)c(C=O)cc2c1[nH]c1cc(O)ccc12` [7-HYDROXYHEPTAPHYLLINE], for which the minimal inhibitory concentration (MIC) (usually the lowest concentration that inhibits growth of the organism) in [9] amounted to 25 µg/mL (≈ 84.6 µM).

Compound `O=C([C@H]1[C@H](/C=C/c2ccc3c(c2)OCO3)[C@H](c2ccc3c(c2)OCO3)C=C[C@H]1C(=O)N1CCCCC1)N1CCCCC1` gave a minimal inhibitory concentration (MIC) in [10] of 12.5 µg/mL (≈ 21.9 µM).

The compound `O=Cc1cc2c3ccc(O)cc3[nH]c2c2ccoc12` displayed a minimum inhibitory concentration (MIC) in [9] of 25 µg/mL (≈ 99.5 µM).

Compound `C[C@@]1(COc2ccc(N3CCC(Oc4ccc(OC(F)(F)F)cc4)CC3)cc2)Cn2cc([N+](=O)[O-])nc2O1` registered an MIC in [11] of 0.006 µg/mL (≈ 0.0112 µM).

As for `COc1ccc2c(c1)[nH]c1cc(O)c(C=O)cc12`, the results for the MIC in [7] and in [10] were 100 µg/mL (≈ 415 µM) and 25 µg/mL (≈ 104 µM), respectively.

Consider `c1cncc(-c2ncc(-c3ccc4c(c3)OCO4)o2)c1`, for which the minimum inhibitory concentration (MIC) (in test [7]; in the test on Mycobacterium kansasii; against Mycobacterium avium [8]) was 25 µg/mL (≈ 93.9 µM) throughout.

In the case of `COc1ccc2c3c(c4cc(OC)c(OC)cc4c2c1)CN1CCCC1C3` (stereo not drawn) [(+/-)-DEOXYTYLOPHORININE], the MIC in [12] came to 6.25 µg/mL (≈ 17.2 µM).

As for `CC(C)/N=c1\cc2n(-c3ccc(Cl)cc3)c3ccccc3nc-2cc1Nc1ccc(Cl)cc1` [CLOFAZIMINE], the minimal inhibitory concentration (MIC) in test [13] is 0.12 µg/mL (≈ 0.253 µM).
